Source: patent publication US8648205B2, “Metal complexes of N-heterocyclic carbenes” (The University of Akron, priority 2003, dated 2014)
Several values for one entry are separate records, joined by “and”; a condition that tells them apart may be missing. Identical values can stand only once. Entries after “also recorded” stand apart in the source; their conditions may differ.

Tests used:
[1] = solubility; details: 37: bromide salt; 20a, 20b: bromide salts
[2] = test system: E. coli, P. aeruginosa, S. aureus; assay: MIC test in aqueous LB broth, summary of Table 5; format: cell-based
[3] = stability (air, light, water, chloride, storage)
[4] = test system: S. aureus (ATCC 6538); assay: MIC test in LB broth comparing AgNO3 and complex 106; format: cell-based; parameters: key: +=growth; −=no growth
[5] = test system: P. aeruginosa (ATCC 9027); assay: as above; format: cell-based; parameters: key: +=growth; −=no growth
[6] = test system: E. coli (ATCC 8739); assay: as above; format: cell-based; parameters: key: +=growth; −=no growth
[7] = test system: Escherichia coli, Staphylococcus aureus, and Pseudomonas aeruginosa; assay: agar plates overlay method, summary of Table 2; format: cell-based
Protocol: (§1) The usefulness of the compounds represented by Formulas 103 and 55 as antimicrobial agents was evaluated. In this test, a filter paper disc of 6 mm diameter was soaked with 20 μL of a silver compound of known concentration, and placed over a lawn of an organism in the agar plate. The diameter of the area in which growth of the organism is inhibited by the test solution was measured after an over night incubation as a measure of the relative antimicrobial activity of the silver compounds. The test organisms were Escherichia coli, Staphylococcus aureus, and Pseudomonas aeruginosa.

[8] = test system: Escherichia coli, Staphylococcus aureus, and Pseudomonas aeruginosa; details: supernatants, less silver chloride
[9] = test system: Staphylococcus aureus; format: cell-based
Protocol: as §1, with “In” for “The usefulness of the compounds represented by Formulas 103 and 55 as antimicrobial agents was evaluated. In”

[10] = test system: Escherichia coli; format: cell-based
Protocol: as §1, with “In” for “The usefulness of the compounds represented by Formulas 103 and 55 as antimicrobial agents was evaluated. In”

[11] = test system: Pseudomonas aeruginosa; format: cell-based
Protocol: as §1, with “In” for “The usefulness of the compounds represented by Formulas 103 and 55 as antimicrobial agents was evaluated. In”

[12] = test system: rats; assay: Toxicity studies with rats, clearance by mass spectroscopy of the urine; format: in vivo
[13] = test system: S. aureus, P. aeruginosa, and E. coli; assay: filter disk test and standard MIC technique; format: cell-based
[14] = LD50 in rats, preliminary studies; details: rat, in vivo, imidazolium cation portion
Excerpt: The imidazolium salt 1,3,9-trimethyl-7-(2,3-dihyroxypropyl)xanthinium iodide represented by Formula 201 is obtained by reacting 7-(2,3-dihydroxypropyl)theophylline (Formula 200) with methyl iodide in dimethylformamide. The imidazolium salt represented by Formula 201 reacts with silver acetate in methanol to yield the N-heterocyclic carbene silver(I) acetate complex (Formula 202), which is a white solid in 34% yield (structure confirmed by X-ray crystallography). The compound represented by Formula 202 is water soluble (Ksp=82 mg/mL) and is stable for at least 7 days in water by NMR. As the compound represented by Formula 202 decomposes to release Ag^+ thereby regenerating the cationic portion of the compound of Formula 201. The imidazolium cation portion of the compound represented by Formula 201 has an LD50 in rats of >2.0 g/kg in preliminary studies.

[15] = test system: bladder carcinoma-derived T24 epithelial cell line (ATCC HTB-4); assay: In vitro toxicity, propidium iodide flow cytometry; format: cell-based
Protocol: A prerequisite for a topical biocide is that it confers acceptable toxicity to the tissue(s) of interest. In vitro toxicity of the compound represented by Formula 202 has been studied using the bladder carcinoma-derived T24 epithelial cell line (ATCC HTB-4). T24 cells were grown in RPMI 1640 medium available from Life Technologies (Carlsbad, Calif.) supplemented with 10% fetal bovine serum available from Sigma (St. Louis, Mo.), seeded into 24-well plates, and grown to confluence over 48 hours. Cells were washed with sterile phosphate buffered saline (PBS) and fresh warmed medium was added, either alone or containing the compound represented by Formula 202 (added to the medium at the start of the experiment to minimize premature liberation of Ag^+ from the compound represented by Formula 202) at concentrations between 5 and 50 μg/mL. After incubation for 1 to 2 hours, cells were released by treatment with 0.05% trypsin-0.02% EDTA, suspended in sorting buffer, stained with propidium iodide, and subjected to flow cytometry on a FACS Calibur instrument available from Becton Dickinson (Piscataway, N.J.).

[16] = test system: panel of E. coli; assay: MIC for a panel of E. coli (UTI strains), 96-well plate; details: Escherichia coli, 16 h
[17] = physchem; details: water
[18] = Day 1, 1DF: AgNO3 1731.18, 106 1675.74 μg/mL
[19] = Day 1, 2DF: AgNO3 865.59, 106 837.87 μg/mL
[20] = Day 1, 3DF: AgNO3 432.79, 106 418.94 μg/mL
[21] = Day 1, 4DF: AgNO3 216.40, 106 209.47 μg/mL
[22] = Day 1, undiluted: AgNO3 0.50 wt/V % (3462.35 μg/mL), 106 1.38 wt/V % (3341.48 μg/mL)
[23] = Day 2, 1DF: AgNO3 1731.18, 106 1675.74 μg/mL
[24] = Day 2, 2DF: AgNO3 865.59, 106 837.87 μg/mL
[25] = Day 2, 3DF: AgNO3 432.79, 106 418.94 μg/mL
[26] = Day 2, 4DF: AgNO3 216.40, 106 209.47 μg/mL
[27] = Day 2, undiluted: AgNO3 0.50 wt/V % (3462.35 μg/mL), 106 1.38 wt/V % (3341.48 μg/mL)

OC1(O)CN2C=CN3Cc4cccc(n4)CN4C=CN(C1)[CH]4[Ag+][CH]1N4C=CN1CC(O)(O)CN1C=CN(Cc5cccc(n5)C4)[CH]1[Ag][CH]32 [Complex 106]
solubility in water / aqueous media [1]: sparingly soluble in water | antimicrobial activity of the aqueous form, fold less effective than 0.5% AgNO3 ([2]; about the same amount of silver): 2 fold | MIC ([2]; after 48 hrs of incubation, read-out: MIC concentration): 838 µg/mL | stability in air and light [3]: air and light stable | stability in water ([3]; 37: bromide salt, 20a, 20b: bromide salts): quick decomposition | growth / no growth [4, 18]: − | growth / no growth [4, 19]: − | growth / no growth [4, 20]: − | growth / no growth [4, 21]: − | growth / no growth [4, 22]: − | growth / no growth [4, 23]: − | growth / no growth [4, 24]: − | growth / no growth [4, 25]: + | growth / no growth [4, 26]: + | growth / no growth [4, 27]: − | growth / no growth [5, 18]: − | growth / no growth [5, 19]: − | growth / no growth [5, 20]: − | growth / no growth [5, 21]: − | growth / no growth [5, 22]: − | growth / no growth [5, 23]: − | growth / no growth [5, 24]: − | growth / no growth [5, 25]: + | growth / no growth [5, 26]: + | growth / no growth [5, 27]: − | growth / no growth [6, 18]: − | growth / no growth [6, 19]: − | growth / no growth [6, 20]: − | growth / no growth [6, 21]: − | growth / no growth [6, 22]: − | growth / no growth [6, 23]: − | growth / no growth [6, 24]: − | growth / no growth [6, 25]: + | growth / no growth [6, 26]: + | growth / no growth [6, 27]: −

F[P-](F)(F)(F)(F)F.F[P-](F)(F)(F)(F)F.OCCn1cc[n+]2[c]1[Ag-][c]1n(CCO)cc[n+]1Cc1cccc(n1)C[n+]1ccn(CCO)[c]1[Ag-][c]1n(CCO)cc[n+]1Cc1cccc(n1)C2 [Compound 105]
solubility in water / aqueous media [1]: is not; also recorded: soluble in aqueous media | antimicrobial properties (Table 2 summary) [7]: comparable to silver nitrate | antimicrobial activity compared with silver nitrate (Table 3 summary) [8]: better antimicrobial activity than silver nitrate | Diameter of Inhibited Area [9]: 9 mm and 10.67 mm | Diameter of Inhibited Area [10]: 10 mm and 11.58 mm | Diameter of Inhibited Area [11]: 12 mm and 10.25 mm

OCC[n+]1ccn(Cc2cccc(Cn3cc[n+](CCO)c3)n2)c1.[Br-].[Br-] [Formula 19a]
toxicity [12]: low toxicity | clearance through the kidneys ([12]; mass spectroscopy of the urine): clears within two days

CC(=O)[O][Ag][CH]1N(C)c2c(n(C)c(=O)n(C)c2=O)N1C (centres unmarked) [Formula 100]
antimicrobial activity [13]: effective antimicrobial activity | stability in air and light [3]: air stable

CN1CN(CC(O)CO)c2c1n(C)c(=O)n(C)c2=O (centres unmarked) [Formula 201]
LD50 [14]: > 2000 mg/kg

CC(=O)[O][Ag][CH]1N(C)c2c(c(=O)n(C)c(=O)n2C)N1CC(O)CO (centres unmarked) [Formula 202]
loss of viability ([15]; 1 h of treatment at 5 μg/mL): ~5% | loss of viability ([15]; 2 hours of treatment at 5 μg/mL): approximately 11% | MIC [16]: 2 to 4 µg/mL | shelf life ([3]; room temperature): several months | stable in solid form ([3]; solid form): a couple months | stable in water by NMR ([3]; water): at least 7 days | solubility [17]: 82 mg/mL
